Measurements reported in patent publication US20210395239A1 (Hoffmann-La Roche Inc., priority 2018, published 2021).

These compounds were tested against T1, human TLR7 (Homo sapiens, UniProt Q9NYK1) (assay: HEK293-Blue-hTLR-7 cells assay (SEAP reporter, R848 stimulation)). Conditions: HEK293-Blue-hTLR7 cells, R848, 20 hrs; read-out: HEK/hTLR7 IC50.
T1 construct: host or cells: HEK293 (HEK-Blue hTLR7)
T1 sequence (Q9NYK1 27-1049): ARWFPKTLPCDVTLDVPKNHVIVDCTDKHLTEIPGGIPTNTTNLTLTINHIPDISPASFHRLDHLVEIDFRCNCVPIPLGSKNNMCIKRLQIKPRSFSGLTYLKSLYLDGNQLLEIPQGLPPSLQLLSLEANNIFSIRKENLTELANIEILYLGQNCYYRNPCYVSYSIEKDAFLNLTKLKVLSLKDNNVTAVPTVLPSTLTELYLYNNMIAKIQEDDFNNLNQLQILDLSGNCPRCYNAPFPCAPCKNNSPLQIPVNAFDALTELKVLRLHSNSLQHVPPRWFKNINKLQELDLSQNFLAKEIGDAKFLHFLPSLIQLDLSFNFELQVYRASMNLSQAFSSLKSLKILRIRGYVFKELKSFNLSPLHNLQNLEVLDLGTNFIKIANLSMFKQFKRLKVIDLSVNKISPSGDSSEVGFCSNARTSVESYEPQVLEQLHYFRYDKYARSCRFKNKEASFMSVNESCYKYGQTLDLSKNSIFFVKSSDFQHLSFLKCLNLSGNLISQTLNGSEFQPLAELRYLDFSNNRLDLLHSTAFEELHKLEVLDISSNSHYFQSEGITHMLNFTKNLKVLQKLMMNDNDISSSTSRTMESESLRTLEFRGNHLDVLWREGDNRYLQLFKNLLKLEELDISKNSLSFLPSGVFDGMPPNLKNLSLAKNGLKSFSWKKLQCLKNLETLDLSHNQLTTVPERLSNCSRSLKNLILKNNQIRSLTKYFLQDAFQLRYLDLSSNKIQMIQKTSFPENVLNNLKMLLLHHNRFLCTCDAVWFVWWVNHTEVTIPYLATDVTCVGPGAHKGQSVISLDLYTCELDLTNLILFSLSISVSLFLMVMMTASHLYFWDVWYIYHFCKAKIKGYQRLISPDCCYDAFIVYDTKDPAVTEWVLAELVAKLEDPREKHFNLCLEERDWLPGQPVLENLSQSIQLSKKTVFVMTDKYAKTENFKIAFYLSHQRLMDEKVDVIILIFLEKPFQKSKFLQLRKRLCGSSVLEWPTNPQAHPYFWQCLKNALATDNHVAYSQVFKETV
Format: cell-based
Text: HEK293-Blue-hTLR-7 Cells Assay:
A stable HEK293-Blue-hTLR-7 cell line was purchased from InvivoGen (Cat. #: hkb-ht1r7, San Diego, Calif., USA). These cells were originally designed for studying the stimulation of human TLR7 by monitoring the activation of NF-κB. A SEAP (secreted embryonic alkaline phosphatase) reporter gene was placed under the control of the IFN-β minimal promoter fused to five NF-κB and AP-1-binding sites. The SEAP was induced by activating NF-κB and AP-1 via stimulating HEK-Blue hTLR7 cells with TLR7 ligands. Therefore the reporter expression was declined by TLR7 antagonist under the stimulation of a ligand, such as R848 (Resiquimod), for incubation of 20 hrs. The cell culture supernatant SEAP reporter activity was determined using QUANTI-Blue™ kit (Cat. #: rep-qb1, Invivogen, San Diego, Ca, USA) at a wavelength of 640 nm, a detection medium that turns purple or blue in the presence of alkaline phosphatase.
HEK293-Blue-hTLR7 cells were incubated at a density of […] cells/mL in a volume of 170 μL in a 96-well plate in Dulbecco's Modified Eagle's medium (DMEM) containing 4.5 g/L glucose, 50 U/mL penicillin, […], […], 2 mM L-glutamine, 10% (v/v) heat-inactivated fetal bovine serum with addition of 20 μL test compound in a serial dilution in the presence of final DMSO at 1% and 10 μL of 20 uM R848 in above DMEM, perform incubation under 37° C. in a CO2 incubator for 20 hrs. Then 20 μL of the supernatant from each well was incubated with 180 μL Quanti-blue substrate solution at 37° C. for 2 hrs and the absorbance was read at 620˜655 nm using a spectrophotometer. The signaling pathway that TLR7 activation leads to downstream NF-κB activation has been widely accepted, and therefore similar reporter assay was modified for evaluating TLR7 antagonist.

| Compound | IC50 |
| --- | --- |
| CO[C@H]1CN(c2cc(C)nc(N3CCN(C[C@H]4CN(c5ccc(C#N)c6nccnc56)C[C@@H](C)O4)CC3)n2)C[C@H]1N [Example 122, 8-[(2S,6R)-2-[[4-[4-[(3R,4S)-3-amino-4-methoxy-pyrrolidin-1-yl]-6-methyl-pyrimidin-2-yl]piperazin-1-yl]methyl]-6-methyl-morpholin-4-yl]quinoxaline-5-carbonitrile] | 5 nM |
| Cc1cc(N2CC(N)C2)nc(N2CCN(C[C@H]3CN(c4ccc(C#N)c5nccnc45)C[C@@H](C)O3)CC2)n1 [Example 123, 8-[(2S,6R)-2-[[4-[4-(3-aminoazetidin-1-yl)-6-methyl-pyrimidin-2-yl]piperazin-1-yl]methyl]-6-methyl-morpholin-4-yl]quinoxaline-5-carbonitrile] | 3 nM |
| [2H]c1ccc2c(N3C[C@H](CN4CCN(c5nc(OC)cc(N6CC(C)(N)C6)n5)CC4)O[C@H](C)C3)ccc(C#N)c2n1 [Example 131, 5-[(2S,6R)-2-[[4-[4-(3-amino-3-methyl-azetidin-1-yl)-6-methoxy-pyrimidin-2-yl]piperazin-1-yl]methyl]-6-methyl-morpholin-4-yl]-2-deuterio-quinoline-8-carbonitrile] | 32 nM |
| [2H]c1ccc2c(N3C[C@H](CN4CCN(c5cnc(N6CC(C)(N)C6)cc5C)CC4)O[C@H](C)C3)ccc(C#N)c2n1 [Example 133, 5-[(2S,6R)-2-[[4-[6-(3-amino-3-methyl-azetidin-1-yl)-4-methyl-3-pyridyl]piperazin-1-yl]methyl]-6-methyl-morpholin-4-yl]-2-deuterio-quinoline-8-carbonitrile] | 41 nM |
| [2H]c1ccc2c(N3C[C@H](CN4CCN(c5nc(C)cc(N6CC(C)(N)C6)n5)CC4)O[C@H](C)C3)ccc(C#N)c2n1 [Example 135, 5-[(2S,6R)-2-[[4-[4-(3-amino-3-methyl-azetidin-1-yl)-6-methyl-pyrimidin-2-yl]piperazin-1-yl]methyl]-6-methyl-morpholin-4-yl]-2-deuterio-quinoline-8-carbonitrile] | 16 nM |
| [2H]c1ccc2c(N3C[C@H](CN4CCN(c5nc(C)cc(N6CC(N)C6)n5)CC4)O[C@H](C)C3)ccc(C#N)c2n1 [Example 136, 5-[(2S,6R)-2-[[4-[4-(3-aminoazetidin-1-yl)-6-methyl-pyrimidin-2-yl]piperazin-1-yl]methyl]-6-methyl-morpholin-4-yl]-2-deuterio-quinoline-8-carbonitrile] | 7 nM |
| [2H]c1ccc2c(N3C[C@H](CN4CCN(c5ccc(N6CC(C)(N)C6)nc5C)CC4)O[C@H](C)C3)ccc(C#N)c2n1 [Example 137, 5-[(2S,6R)-2-[[4-[6-(3-amino-3-methyl-azetidin-1-yl)-2-methyl-3-pyridyl]piperazin-1-yl]methyl]-6-methyl-morpholin-4-yl]-2-deuterio-quinoline-8-carbonitrile] | 19 nM |
| [2H]c1ccc2c(N3C[C@H](CN4CC(c5ccc(N6CC(C)(N)C6)nc5)C4)O[C@H](C)C3)ccc(C#N)c2n1 [Example 138, 5-[(2S,6R)-2-[[3-[6-(3-amino-3-methyl-azetidin-1-yl)-3-pyridyl]azetidin-1-yl]methyl]-6-methyl-morpholin-4-yl]-2-deuterio-quinoline-8-carbonitrile] | 5 nM |

Further lines, results first:

| IC50 | Compound |
| --- | --- |
| 4 nM | C[C@@H]1CN(c2ccc(C#N)c3nccnc23)C[C@H](CN2CCN(c3nccc(N4CC(N)C4)n3)CC2)O1 [Example 118, 8-[(2S,6R)-2-[[4-[4-(3-aminoazetidin-1-yl)pyrimidin-2-yl]piperazin-1-yl]methyl]-6-methyl-morpholin-4-yl]quinoxaline-5-carbonitrile] |
| 5 nM | CO[C@@H]1CN(c2cc(C)nc(N3CCN(C[C@H]4CN(c5ccc(C#N)c6nccnc56)C[C@@H](C)O4)CC3)n2)C[C@@H]1N [Example 120, 8-[(2S,6R)-2-[[4-[4-[(3S,4R)-3-amino-4-methoxy-pyrrolidin-1-yl]-6-methyl-pyrimidin-2-yl]piperazin-1-yl]methyl]-6-methyl-morpholin-4-yl]quinoxaline-5-carbonitrile] |
| 8 nM | CO[C@@H]1CN(c2cc(C)nc(N3CCN(C[C@H]4CN(c5ccc(C#N)c6nccnc56)C[C@@H](C)O4)CC3)n2)C[C@H]1N [Example 121, 8-[(2S,6R)-2-[[4-[4-[(3R,4R)-3-amino-4-methoxy-pyrrolidin-1-yl]-6-methyl-pyrimidin-2-yl]piperazin-1-yl]methyl]-6-methyl-morpholin-4-yl]quinoxaline-5-carbonitrile] |
| 47 nM | Cc1cc(N2C[C@@H](N)[C@](C)(O)C2)nc(N2CCN(C[C@H]3CN(c4ccc(C#N)c5nccnc45)C[C@@H](C)O3)CC2)n1 [Example 125, 8-[(2S,6R)-2-[[4-[4-[(3R,4R)-4-amino-3-hydroxy-3-methyl-pyrrolidin-1-yl]-6-methyl-pyrimidin-2-yl]piperazin-1-yl]methyl]-6-methyl-morpholin-4-yl]quinoxaline-5-carbonitrile] |
| 21 nM | Cc1ccc(N2C[C@H](CN3CCN(c4ccnc(N5CC6(CNCCO6)C5)n4)CC3)O[C@H](C)C2)c2nccnc12 [Example 126, 2-[4-[4-[[(2S,6R)-6-methyl-4-(8-methylquinoxalin-5-yl)morpholin-2-yl]methyl]piperazin-1-yl]pyrimidin-2-yl]-5-oxa-2,8-diazaspiro[3.5]nonane] |
| 29 nM | Cc1ccc(N2C[C@H](CN3CCN(c4ccnc(N5CCN[C@@H](C)C5)n4)CC3)O[C@H](C)C2)c2nccnc12 [Example 127, (2R,6S)-2-methyl-6-[[4-[2-[(3S)-3-methylpiperazin-1-yl]pyrimidin-4-yl]piperazin-1-yl]methyl]-4-(8-methylquinoxalin-5-yl)morpholine] |
| 30 nM | Cc1ccc(N2C[C@H](CN3CCN(c4ccnc(N5CCN[C@H](C)C5)n4)CC3)O[C@H](C)C2)c2nccnc12 [Example 128, (2R,6S)-2-methyl-6-[[4-[2-[(3R)-3-methylpiperazin-1-yl]pyrimidin-4-yl]piperazin-1-yl]methyl]-4-(8-methylquinoxalin-5-yl)morpholine] |
| 20 nM | Cc1ccc(N2C[C@H](CN3CCN(c4ccnc(N5C[C@H]6NCCO[C@@H]6C5)n4)CC3)O[C@H](C)C2)c2nccnc12 [Example 129, (4aR,7aR)-6-[4-[4-[[(2S,6R)-6-methyl-4-(8-methylquinoxalin-5-yl)morpholin-2-yl]methyl]piperazin-1-yl]pyrimidin-2-yl]-3,4,4a,5,7,7a-hexahydro-2H-pyrrolo[3,4-b][1,4]oxazine] |
| 16 nM | Cc1ccc(N2C[C@H](CN3CCN(c4ccnc(N5CC(N)C5)n4)CC3)O[C@H](C)C2)c2nccnc12 [Example 130, 1-[4-[4-[[(2S,6R)-6-methyl-4-(8-methylquinoxalin-5-yl)morpholin-2-yl]methyl]piperazin-1-yl]pyrimidin-2-yl]azetidin-3-amine] |
| 20 nM | [2H]c1ccc2c(N3C[C@H](CN4CCN(c5ncc(N6CC(C)(N)C6)cc5C)CC4)O[C@H](C)C3)ccc(C#N)c2n1 [Example 139, 5-[(2S,6R)-2-[[4-[5-(3-amino-3-methyl-azetidin-1-yl)-3-methyl-2-pyridyl]piperazin-1-yl]methyl]-6-methyl-morpholin-4-yl]-2-deuterio-quinoline-8-carbonitrile] |
